pIC50: −log10 of the molar value. ≈ marks a conversion by molar mass, not a printed value. Where two headings read alike, the source gives them in different places.
Key:
[1] = system: S. aureus Sa1 ATCC 13709; experiment: microbe, parasite or virus in culture; assay type: cell-based; settings: Staphylococcus aureus
[2] = system: S. aureus Sa26 ATCC 25923; experiment: Antibacterial activity assay (MIC), S. aureus Sa26; assay type: cell-based; settings: Staphylococcus aureus
[3] = system: S. aureus Sa4 NCTC 6571; experiment: Antibacterial activity assay (MIC), S. aureus Sa4; assay type: cell-based; settings: Staphylococcus aureus
[4] = system: S. aureus Sa2 clinical strain NCIMB 41953, MRSA; experiment: microbe, parasite or virus in culture; assay type: cell-based; settings: Staphylococcus aureus, read-out: MIC Sa2
[5] = system: H. influenza Hi3 ATCC 31517; experiment: organism not typed; assay type: cell-based; settings: read-out: MIC Hi3
[6] = system: H. influenza Hi10 clinical strain; experiment: organism not typed; assay type: cell-based; settings: read-out: MIC Hi10
[7] = system: H. influenza Hi47 clinical strain, Ampicillin Resistant; experiment: organism not typed; assay type: cell-based; settings: read-out: MIC Hi47
[8] = system: H. influenza Hi106 ATCC 51907; experiment: organism not typed; assay type: cell-based; settings: read-out: MIC Hi106
[9] = system: E. coli Ec1 ATCC 25922; experiment: Antibacterial activity assay (MIC), E. coli Ec1; assay type: cell-based; settings: Escherichia coli
[10] = system: E. coli Ec50 efflux pump KO; experiment: microbe, parasite or virus in culture; assay type: cell-based; settings: Escherichia coli, read-out: MIC Ec50 efflux pump KO
[11] = system: E. coli Ec113 efflux pump KO; experiment: microbe, parasite or virus in culture; assay type: cell-based; settings: Escherichia coli, read-out: MIC Ec113 efflux pump KO
[12] = molecular target: DNA Polymerase IIIα (DnaE) from Staphylococcus aureus (Staphylococcus aureus, UniProt Q6GG04); experiment: biochemical
[13] = molecular target: DNA III Polymerase E (Escherichia coli, UniProt P10443); experiment: In vitro activity against DNA III Polymerase E, E. coli; assay type: biochemical
In short: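 Recombinant enzyme (0.47 μg/mL diluted stock) in 20 mM Tris pH7.5, 8 mM DTT, 10 mM MgOAc, 0.05% CHAPS met compound series from 100 μM top, 1/5 steps. Activated calf thymus DNA, dNTPs and [α-33P]-dTTP substrate were added, and incubation ran 120 min at 30° C. IC50 came from filter-captured incorporated radioactivity versus controls.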

[14] = system: Methicillin Resistant S. aureus (MRSA); experiment: Neutropenic mouse thigh infection model; settings: Thigh Sa, Study 1; 100 mg/kg IP BID; sample time 7 h PI
[15] = system: Methicillin Resistant S. aureus Sa2 (MRSA); experiment: animal or person; assay type: in vivo; settings: 50 mg/kg PO BID, sample 24 h post infection, lung; for log reduction at 50 mg/kg: Staphylococcus aureus, MRSA, in Mus musculus
[16] = ATCC25923, read-out: MIC Sa26 + 10% SH
[17] = ATCC25923, read-out: MIC Sa26 + 50% SH
[18] = DNA polymerase III, E. coli, read-out: IC50 semiquantitative scoring, E. coli
[19] = ATCC13709, S. aureus Sa1 ATCC 13709, sensitive strain, Mueller-Hinton Broth, 37° C., read-out: MIC Sa1
[20] = ATCC25923, read-out: MIC Sa26 + 10% SH, S. aureus Sa26 + 10% SH
[21] = ATCC25923, read-out: MIC Sa26 + 50% SH, S. aureus Sa26 + 50% SH
[22] = ATCC25923, S. aureus Sa26 ATCC 25923, sensitive strain, Mueller-Hinton Broth, 37° C., read-out: MIC Sa26
[23] = NCTC6571, S. aureus Sa4 NCTC 6571, sensitive strain, read-out: MIC Sa4
[24] = ATCC25922, E. coli Ec1 ATCC 25922, sensitive strain, read-out: MIC Ec1

DNA III Polymerase E, sequence (P10443 whole entry): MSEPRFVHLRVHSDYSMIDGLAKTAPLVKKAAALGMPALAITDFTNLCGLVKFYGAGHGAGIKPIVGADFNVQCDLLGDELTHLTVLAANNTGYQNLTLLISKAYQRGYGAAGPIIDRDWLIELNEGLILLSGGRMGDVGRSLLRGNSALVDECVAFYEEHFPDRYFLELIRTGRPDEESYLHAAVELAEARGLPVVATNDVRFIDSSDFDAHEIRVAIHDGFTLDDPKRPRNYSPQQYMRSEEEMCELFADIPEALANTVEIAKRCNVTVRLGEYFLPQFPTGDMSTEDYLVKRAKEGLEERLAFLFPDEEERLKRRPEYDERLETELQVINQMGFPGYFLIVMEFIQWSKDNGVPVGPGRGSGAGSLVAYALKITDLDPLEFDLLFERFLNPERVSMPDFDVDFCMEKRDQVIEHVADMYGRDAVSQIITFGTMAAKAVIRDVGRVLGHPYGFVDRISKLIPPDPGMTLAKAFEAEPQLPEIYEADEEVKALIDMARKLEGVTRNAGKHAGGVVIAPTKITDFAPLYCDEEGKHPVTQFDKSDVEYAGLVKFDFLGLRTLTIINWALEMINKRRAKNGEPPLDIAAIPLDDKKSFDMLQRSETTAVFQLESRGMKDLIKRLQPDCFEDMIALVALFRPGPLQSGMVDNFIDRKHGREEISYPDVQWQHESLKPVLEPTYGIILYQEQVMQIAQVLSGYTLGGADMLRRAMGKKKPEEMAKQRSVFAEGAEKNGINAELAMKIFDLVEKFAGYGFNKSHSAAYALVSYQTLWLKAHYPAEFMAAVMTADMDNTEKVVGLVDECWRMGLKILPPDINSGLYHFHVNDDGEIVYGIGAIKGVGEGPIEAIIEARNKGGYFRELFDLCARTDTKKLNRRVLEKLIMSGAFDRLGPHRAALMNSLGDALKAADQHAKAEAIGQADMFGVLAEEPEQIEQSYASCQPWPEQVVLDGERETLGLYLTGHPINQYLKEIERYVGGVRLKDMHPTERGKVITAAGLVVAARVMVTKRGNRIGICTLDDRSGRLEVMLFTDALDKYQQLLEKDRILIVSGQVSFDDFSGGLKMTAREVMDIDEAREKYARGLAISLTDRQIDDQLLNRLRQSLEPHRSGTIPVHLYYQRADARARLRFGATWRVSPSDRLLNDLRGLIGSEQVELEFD
DNA Polymerase IIIα (DnaE) from Staphylococcus aureus, sequence (Q6GG04 1-1022): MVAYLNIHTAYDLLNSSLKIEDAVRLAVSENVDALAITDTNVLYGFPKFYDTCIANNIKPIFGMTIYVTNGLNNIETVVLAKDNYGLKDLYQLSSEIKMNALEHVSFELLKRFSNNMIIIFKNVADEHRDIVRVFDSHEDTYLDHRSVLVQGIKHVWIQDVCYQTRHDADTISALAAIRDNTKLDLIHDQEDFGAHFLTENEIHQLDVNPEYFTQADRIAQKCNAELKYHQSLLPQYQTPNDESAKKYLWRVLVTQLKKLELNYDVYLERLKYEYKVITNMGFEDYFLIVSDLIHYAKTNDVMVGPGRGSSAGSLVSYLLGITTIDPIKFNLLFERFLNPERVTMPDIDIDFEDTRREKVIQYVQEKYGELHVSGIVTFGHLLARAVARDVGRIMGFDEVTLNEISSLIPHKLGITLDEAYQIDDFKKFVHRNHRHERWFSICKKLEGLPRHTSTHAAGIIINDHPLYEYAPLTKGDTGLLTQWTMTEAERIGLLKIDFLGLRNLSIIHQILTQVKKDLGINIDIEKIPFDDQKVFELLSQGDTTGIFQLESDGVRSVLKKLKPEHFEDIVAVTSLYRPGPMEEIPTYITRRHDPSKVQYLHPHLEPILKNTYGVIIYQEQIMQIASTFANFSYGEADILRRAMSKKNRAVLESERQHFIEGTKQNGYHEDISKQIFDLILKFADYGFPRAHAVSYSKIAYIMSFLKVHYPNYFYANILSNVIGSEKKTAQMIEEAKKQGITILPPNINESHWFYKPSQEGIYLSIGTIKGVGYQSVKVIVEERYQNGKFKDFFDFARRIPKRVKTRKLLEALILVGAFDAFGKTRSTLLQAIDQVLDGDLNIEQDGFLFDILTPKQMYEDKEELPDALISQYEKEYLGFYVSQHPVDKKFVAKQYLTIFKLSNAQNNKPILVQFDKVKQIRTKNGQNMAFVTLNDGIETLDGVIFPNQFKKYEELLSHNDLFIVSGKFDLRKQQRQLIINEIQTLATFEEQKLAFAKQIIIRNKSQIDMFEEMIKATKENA

Row | Structure (SMILES) | MIC ([1]; ATCC13709, read-out: MIC Sa1) [µg/mL] | MIC ([2]; ATCC25923, read-out: MIC Sa26) [µg/mL] | MIC [2, 16] [µg/mL] | MIC [2, 17] [µg/mL] | MIC ([3]; NCTC6571, read-out: MIC Sa4) [µg/mL] | MIC [4] [µg/mL] | MIC [5] [µg/mL] | MIC [6] [µg/mL] | MIC [7] [µg/mL] | MIC [8] [µg/mL] | MIC [10] [µg/mL] | MIC [11] [µg/mL] | pIC50 [12] | pIC50 [13, 18] | MIC [1, 19] [µg/mL] | MIC [2, 20] [µg/mL] | MIC [2, 21] [µg/mL] | MIC [2, 22] [µg/mL] | MIC [3, 23] [µg/mL] | MIC [9, 24] [µg/mL] | other results
1 | COC[C@H]1[C@@H](O)[C@@H]2O[C@@]34/C(C)=C/[C@@H](C)[C@@H]([C@H](O)COC)OC(=O)[C@H](COC)[C@H]3C=C[C@@H]2[C@H]4[C@@H]1O [Branimycin, reference compound] | 64 (≈ 133 µM) | 64 (≈ 133 µM) | 64 | 64 | 64 (≈ 133 µM) | 64 (≈ 133 µM) | > 64 | > 64 | > 64 | > 64 | 8 (≈ 16.6 µM) | 1 (≈ 2.07 µM) | 5.68 to 8.68 | 4.68 to 5.68 |  |  |  |  |  |  | MIC ([9]; ATCC25922, read-out: MIC Ec1): > 64 µg/mL; Active [14]: N; Log reduction vs. untreated [14]: −0.3
2 | COC[C@@H]1[C@@H](O)[C@@H]2[C@H]3C=C[C@@H]4[C@@H](COC)C(=O)O[C@H]([C@H](O)COC)[C@H](C)/C=C(\C)[C@@]24O[C@H]3[C@@H]1OC(=O)c1cc(Cl)c[nH]1 [Compound 28, 8-O-4-Chloro-1H-pyrrole-2′-carbonylbranimycin] |  |  |  |  |  | 4 (≈ 6.56 µM) | > 64 | 64 (≈ 105 µM) | 64 (≈ 105 µM) | 64 (≈ 105 µM) | 64 (≈ 105 µM) | 1 (≈ 1.64 µM) | 5.79 to 8.79 |  | 2 (≈ 3.28 µM) | 4 | 16 | 4 (≈ 6.56 µM) | 4 (≈ 6.56 µM) | > 64 | pIC50 [13]: 4.79 to 5.79; log reduction at 50 mg/kg ([15]; po, 24 h, read-out: Log reduction vs. untreated, Study 3): 1.64; Active ([15]; Study 3): N
3 | COC[C@@H]1[C@@H](O)[C@@H]2[C@H]3C=C[C@@H]4[C@@H](COC)C(=O)O[C@H]([C@H](O)COC)[C@H](C)/C=C(\C)[C@@]24O[C@H]3[C@@H]1OC(=O)c1cocn1 [Compound 8, 8-O-Oxazole-4′-carbonylbranimycin] |  |  |  |  |  | > 64 | > 64 | > 64 | > 64 | > 64 | > 64 | 64 (≈ 111 µM) |  | < 4.76 | > 64 | > 64 | > 64 | > 64 | > 64 | > 64 | pIC50 ([12]; DNA polymerase III, S. aureus, read-out: IC50 semiquantitative scoring, S. aureus): 4.76 to 5.76
4 | COC[C@@H](O)[C@H]1OC(=O)[C@H](COC)[C@H]2C=C[C@H]3[C@H]4O[C@]2(/C(C)=C/[C@H]1C)[C@@H]3[C@H](O)[C@@H](C)[C@H]4OC(=O)c1ccc[nH]1 [Compound 3, 8-O-1H-pyrrole-2′-carbonylbaleomycin] |  |  |  |  |  | 0.5 (≈ 0.916 µM) | > 64 | 64 (≈ 117 µM) | > 64 | 64 (≈ 117 µM) | 8 (≈ 14.7 µM) | 0.125 (≈ 0.229 µM) | 5.74 to 8.74 | 4.74 to 5.74 | 0.5 (≈ 0.916 µM) | 1 | 2 | 1 (≈ 1.83 µM) | 0.5 (≈ 0.916 µM) | > 64 | 
5 | COC[C@@H]1[C@@H](O)[C@@H]2[C@H]3C=C[C@@H]4C[C@H](O)C(=O)O[C@H]([C@H](O)COC)[C@H](C)/C=C(\C)[C@@]24O[C@H]3[C@@H]1OC(=O)c1ccc[nH]1 [Nargenicin B1, reference compound] | 1 (≈ 1.78 µM) | 2 (≈ 3.56 µM) | 2 | 1 | 0.5 (≈ 0.89 µM) | 0.5 (≈ 0.89 µM) | > 64 | > 64 | > 64 | > 64 | 16 (≈ 28.5 µM) | 2 (≈ 3.56 µM) | 5.75 to 8.75 | < 4.75 |  |  |  |  |  |  | MIC ([9]; ATCC25922, read-out: MIC Ec1): > 64 µg/mL
6 | COC[C@@H]1[C@@H](O)[C@@H]2[C@H]3C=C[C@@H]4[C@@H](COC)C(=O)O[C@H]([C@H](O)COC)[C@H](C)/C=C(\C)[C@@]24O[C@H]3[C@@H]1OC(=O)c1cc(C#N)c[nH]1 [Compound 26, 8-O-4-Cyano-1H-pyrrole-2′-carbonylbranimycin] | 64 (≈ 107 µM) | 128 (≈ 213 µM) | 128 | 64 | 64 (≈ 107 µM) | 64 (≈ 107 µM) | > 128 | > 128 | > 128 | > 128 | 2 (≈ 3.33 µM) | 4 (≈ 6.66 µM) | 5.78 to 8.78 | 4.78 to 5.78 |  |  |  |  |  |  | MIC ([9]; ATCC25922, read-out: MIC Ec1): > 128 µg/mL
7 | COC[C@@H]1[C@@H](O)[C@@H]2[C@H]3C=C[C@@H]4[C@@H](COC)C(=O)O[C@H](C(C)(O)COC)[C@H](C)/C=C(\C)[C@@]24O[C@H]3[C@@H]1OC(=O)c1ccc[nH]1 (stereo partly drawn) [Compound 24, 17-Methyl-8-O-1H-pyrrole-2′-carbonylbranimycin] |  |  |  |  |  | 2 (≈ 3.39 µM) | > 64 | > 64 | > 64 | > 64 | 1 (≈ 1.7 µM) | 2 (≈ 3.39 µM) | 5.77 to 8.77 |  | 4 (≈ 6.78 µM) | 4 | 4 | 4 (≈ 6.78 µM) | 2 (≈ 3.39 µM) | > 64 | pIC50 [13]: < 4.77
8 | COCC(=NO)[C@H]1OC(=O)[C@H](COC)[C@H]2C=C[C@H]3[C@H]4O[C@]2(/C(C)=C/[C@H]1C)[C@@H]3[C@H](O)[C@@H](COC)[C@H]4OC(=O)c1ccc[nH]1 [Compound 25, 18-Deoxy-18-oximino-8-O-1H-pyrrole-2′-carbonylbranimycin] |  |  |  |  |  | ≤ 0.06 | > 64 | > 64 | > 64 | > 64 | 0.5 (≈ 0.849 µM) | 0.25 (≈ 0.425 µM) | 5.77 to 8.77 | 4.77 to 5.77 | 0.25 (≈ 0.425 µM) | 0.5 | 1 | 0.5 (≈ 0.849 µM) | 0.25 (≈ 0.425 µM) | > 64 | log reduction at 50 mg/kg ([15]; Study 1, read-out: Log reduction vs. untreated): 0.36; Active ([15]; Study 1): N

From patent publication US20160297830A1, “NOVEL COMPOUNDS USEFUL FOR THE TREATMENT OF BACTERIAL INFECTIOUS DISEASES” (GALAPAGOS NV, priority 2013, published 2016)
